The values below are quoted from earlier work in patent publication US20080107740A1, “Pharmaceutical composition comprising salmeterol and budesonide for the treatment of respiratory disorders” (GALEPHAR M/F, priority 2001, published 2008).

SMILES strings stand for the structures. A value given as a limit tells only on which side of the number the result lay.

For data set [1] the following is noted: inhaled, administered after or before inhaled corticosteroids.
In data set [2] the test system is patients with reversible obstructive respiratory disease.

For the compound `OCc1cc(C(O)CNCCCCCCOCCCCc2ccccc2)ccc1O` (stereo not shown) [Salmeterol], in data set [1], the tolerability result was “well tolerated”. Moreover, in data set [2] (after inhalation), the “onset of significant bronchodilation” value was “within minutes” and the “time to maximal bronchodilation” value is not above 2 h. The duration of bronchodilation entry in data set [2] (inhalation, patients with reversible obstructive respiratory disease) was “up to 12 hours”.
